Target: T1, human recombinant GPR65 (Homo sapiens, UniProt Q8IYL9)
T1 construct: host or cells: 1321N1 human astrocytoma cells (1321N1-hrGPR65)
Assay: Human GPR65 cAMP HTRF antagonist assay
Format: cell-based
Conditions: 1321N1-hrGPR65 cells stimulated at assay pH 7.2; suppression of cAMP rise; read-out: hGPR65 IC50
Protocol: Human GPR65 Cyclic Adenosine Monophosphate (cAMP) Homogeneous Time Resolved Fluorescence (HTRF) Antagonist Assay Procedure
IC50 data was obtained by the following procedure:
1321N1 human astrocytoma cells stably expressing human recombinant GPR65 (1321N1-hrGPR65 cells, EuroscreenFast) were cultured according to the vendor's instructions.
Compounds were tested for their ability to antagonise GPR65, through measuring the concentration of cytoplasmic cAMP following treatment of the cells at a pH of 7.2 to activate GPR65 signalling and addition of the compound to be tested. The extent to which the expected rise in cAMP concentration upon GPR65 activation was suppressed by the added compound is indicative of its potency. The assay was carried out according to EuroscreenFast assay methodology as follows.
On the day of the assay, test compounds were added to 384-well, low volume, white microtiter plates by acoustic dispensing. KRH buffer (5 mM KCl, 1.25 mM MgSO4, 124 mM NaCl, 25 mM HEPES, 13.3 mM Glucose, 1.25 mM KH2PO4 and 1.45 mM CaCl2) was adjusted to pH 6.5, pH 7.6 and pH 8.4 by adding NaOH. 1321N1-hGPR65 cells were rapidly thawed and diluted in KRH, pH 7.6 prior to centrifugation at 300×g for 5 min and resuspension in assay buffer (KRH, pH 7.6, supplemented with 1 mM 3-isobutyl-1-methylxanthine (IBMX) and 200 μM ethylenediaminetetraacetic acid (EDTA)). Cells were added to assay plates at a density of 2,000 cells per well in a volume of 5 μl. Assay plates were briefly centrifuged at 100×g and then incubated at room temperature for 30 min. Cells were stimulated by the addition of 5 μL KRH, pH 6.5, to achieve an assay pH of 7.2, while control wells received 5 μl KRH, pH 8.4 to achieve an assay pH of 7.9. Assay plates were briefly centrifuged at 100×g and then incubated at room temperature for 30 min.
Accumulation of cAMP was detected by cAMP HTRF kit (Cisbio). d2-labeled cAMP and cryptate-labeled anti-cAMP antibody in Lysis and Detection Buffer (Cisbio) were added to assay plates, and the plates were incubated at room temperature for 1 h. HTRF measurements were performed using a Pherastar FSX instrument. Acceptor and donor emission signals were measured at 665 nm and 620 nm, respectively, and HTRF ratios were calculated as signal665 nm/signal620 nm×10^4. Data were normalised to high and low control values and fitted with 4-parameter logistic regression to determine hGPR65 IC50 values for the test compounds, which are shown in Table 1.

T1 sequence (Q8IYL9 whole entry): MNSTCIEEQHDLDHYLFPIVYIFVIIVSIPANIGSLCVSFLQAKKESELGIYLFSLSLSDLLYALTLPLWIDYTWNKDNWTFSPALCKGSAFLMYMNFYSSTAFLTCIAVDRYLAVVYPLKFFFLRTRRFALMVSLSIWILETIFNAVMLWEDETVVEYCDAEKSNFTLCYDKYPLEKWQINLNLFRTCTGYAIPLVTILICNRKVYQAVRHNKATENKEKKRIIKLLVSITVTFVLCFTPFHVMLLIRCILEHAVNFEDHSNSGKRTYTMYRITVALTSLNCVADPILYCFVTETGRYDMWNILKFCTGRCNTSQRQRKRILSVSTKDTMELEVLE

Work on `O=C(Nc1ccc(Cl)c(Cl)c1)N1CCc2cc(F)ccc2C1` [Compound 42, N-(3,4-Dichlorophenyl)-6-fluoro-3,4-dihydroisoquinoline-2(1H)-carboxamide] yielded an IC50 of under 0.5 µM.
For `O=C(Nc1ccc(Cl)c(C(F)(F)F)c1)N1CCc2cc(=O)[nH]cc2C1` [Compound 89, N-(4-chloro-3-(trifluoromethyl)phenyl)-6-oxo-3,4,6,7-tetrahydro-2,7-naphthyridine-2(1H)-carboxamide], the IC50 was 0.5 to 5 µM.
`O=C(Nc1ccc(Cl)c(C(F)(F)F)c1)N1CCc2c(Cl)cccc2C1` [Compound 56, 5-Chloro-N-(4-chloro-3-(trifluoromethyl)phenyl)-3,4-dihydroisoquinoline-2(1H)-carboxamide] showed an IC50 of over 5 µM.
Work on `O=C(Nc1cc(Cl)c(Cl)cc1F)N1CCc2cc(=O)[nH]cc2C1` [Compound 112, N-(4,5-Dichloro-2-fluorophenyl)-6-oxo-3,4,6,7-tetrahydro-2,7-naphthyridine-2(1H)-carboxamide] yielded an IC50 of under 0.5 µM.
With `O=C(Nc1ccc(Cl)c(Cl)c1)N1CCc2cc(O)ccc2C1` [Compound 95, N-(3,4-Dichlorophenyl)-6-hydroxy-3,4-dihydroisoquinoline-2(1H)-carboxamide] the IC50 was over 5 µM.
With `O=C(Nc1ccc(Cl)c(Cl)c1)N1CCc2ccc(Cl)cc2C1` [Compound 138, 7-Chloro-N-(3,4-dichlorophenyl)-3,4-dihydroisoquinoline-2(1H)-carboxamide] the IC50 was 0.5 to 5 µM.
Work on `N#Cc1ccc2c(c1)CN(C(=O)Nc1ccc(Cl)c(C(F)(F)F)c1)CC2` [Compound 50, N-(4-Chloro-3-(trifluoromethyl)phenyl)-7-cyano-3,4-dihydroisoquinoline-2(1H)-carboxamide] yielded an IC50 of 0.5 to 5 µM.
With `O=C(Nc1ccc(C(F)(F)F)c(Cl)c1)N1CCc2ccncc2C1` [Compound 17, N-(3-Chloro-4-(trifluoromethyl)phenyl)-3,4-dihydro-2,7-naphthyridine-2(1H)-carboxamide] the IC50 was 0.5 to 5 µM.
`COc1cccc2c1CCN(C(=O)Nc1ccc(C(F)(F)F)c(Cl)c1)C2` [Compound 134, N-(3-Chloro-4-(trifluoromethyl)phenyl)-5-methoxy-3,4-dihydroisoquinoline-2(1H)-carboxamide] was tested, and the IC50 was 0.5 to 5 µM.
Work on `COc1ccc2c(c1)CN(C(=O)Nc1ccc(Cl)c(Cl)c1)CC2` [Compound 61, N-(3,4-Dichlorophenyl)-7-methoxy-3,4-dihydroisoquinoline-2(1H)-carboxamide] yielded an IC50 of 0.5 to 5 µM.
`O=C(Nc1ccc(Cl)c(Cl)c1)N1CCc2c(ccnc2F)C1` [Compound 120, N-(3,4-Dichlorophenyl)-5-fluoro-3,4-dihydro-2,6-naphthyridine-2(1H)-carboxamide] showed an IC50 of under 0.5 µM.
With `O=C(Nc1ccc(Cl)c(C(F)(F)F)c1)N1CCc2ncccc2C1` [Compound 21, N-(4-Chloro-3-(trifluoromethyl)phenyl)-7,8-dihydro-1,6-naphthyridine-6(5H)-carboxamide] the IC50 was over 5 µM.
`O=C(Nc1ccc(Cl)c(Cl)c1)N1CCc2ccccc2C1` [Compound 81, N-(3,4-Dichlorophenyl)-3,4-dihydroisoquinoline-2(1H)-carboxamide] was tested, and the IC50 was 0.5 to 5 µM.
`O=C(Nc1ccc(C(F)(F)F)c(Cl)c1)N1CCc2cc(Cl)ccc2C1` [Compound 54, 6-Chloro-N-(3-chloro-4-(trifluoromethyl)phenyl)-3,4-dihydroisoquinoline-2(1H)-carboxamide] gave an IC50 of under 0.5 µM.
In the case of `O=C(Nc1ccc(Cl)c(Cl)c1)N1CCc2cn3cnnc3cc2C1` [Compound 116, N-(3,4-Dichlorophenyl)-6,7-dihydro-[1,2,4]triazolo[4,3-b][2,6]naphthyridine-8(9H)-carboxamide], the IC50 is reported as over 5 µM.
Molecule `Cc1cccc2c1CN(C(=O)Nc1ccc(Cl)c(C(F)(F)F)c1)CC2` [Compound 28, N-(4-Chloro-3-(trifluoromethyl)phenyl)-8-methyl-3,4-dihydroisoquinoline-2(1H)-carboxamide] has an IC50 of over 5 µM.
`O=C(Nc1ccc(Cl)c(C(F)(F)F)c1)N1CCc2cncnc2C1` [Compound 7, N-(4-Chloro-3-(trifluoromethyl)phenyl)-5,8-dihydropyrido[3,4-d]pyrimidine-7(6H)-carboxamide] gave an IC50 of 0.5 to 5 µM.
`O=C(Nc1ccc(Cl)c(C(F)(F)F)c1)N1CCc2ccccc2C1` [Compound 11, N-(4-Chloro-3-(trifluoromethyl)phenyl)-3,4-dihydroisoquinoline-2(1H)-carboxamide] gave an IC50 of 0.5 to 5 µM.
In the case of `O=C(Nc1ccc(C(F)(F)F)c(Cl)c1)N1CCc2oncc2C1` [Compound 26, N-(3-Chloro-4-(trifluoromethyl)phenyl)-6,7-dihydroisoxazolo[4,5-c]pyridine-5(4H)-carboxamide], the IC50 is reported as 0.5 to 5 µM.
`N#Cc1ccc2c(c1)CCN(C(=O)Nc1ccc(Cl)c(Cl)c1)C2` [Compound 37, 6-Cyano-N-(3,4-dichlorophenyl)-3,4-dihydroisoquinoline-2(1H)-carboxamide] gave an IC50 of under 0.5 µM.
`O=C(Nc1ccc(Cl)c(Cl)c1)N1CCc2ccc(O)cc2C1` [Compound 96, N-(3,4-Dichlorophenyl)-7-hydroxy-3,4-dihydroisoquinoline-2(1H)-carboxamide] was tested, and the IC50 was 0.5 to 5 µM.
With `O=C(Nc1ccc(Cl)c(C(F)(F)F)c1)N1CCc2[nH]c(=O)ccc2C1` [Compound 77, N-(4-Chloro-3-(trifluoromethyl)phenyl)-2-oxo-1,5,7,8-tetrahydro-1,6-naphthyridine-6(2H)-carboxamide] the IC50 was over 5 µM.
Molecule `O=C(Nc1ccc(Cl)c(C(F)(F)F)c1)N1CCc2cnccc2C1` [Compound 13, N-(4-Chloro-3-(trifluoromethyl)phenyl)-3,4-dihydro-2,6-naphthyridine-2(1H)-carboxamide] has an IC50 of 0.5 to 5 µM.
In the case of `O=C(Nc1ccc(C(F)(F)F)c(Cl)c1)N1CCc2cnc(F)cc2C1` [Compound 87, N-(3-Chloro-4-(trifluoromethyl)phenyl)-7-fluoro-3,4-dihydro-2,6-naphthyridine-2(1H)-carboxamide], the IC50 is reported as 0.5 to 5 µM.
`CS(=O)(=O)c1ccc2c(c1)CCN(C(=O)Nc1ccc(Cl)c(Cl)c1)C2` [Compound 125, N-(3,4-Dichlorophenyl)-6-(methylsulfonyl)-3,4-dihydroisoquinoline-2(1H)-carboxamide] gave an IC50 of over 5 µM.
With `N#Cc1ccc2c(c1)CN(C(=O)Nc1ccc(Cl)c(Cl)c1)CC2` [Compound 49, 7-Cyano-N-(3,4-dichlorophenyl)-3,4-dihydroisoquinoline-2(1H)-carboxamide] the IC50 was 0.5 to 5 µM.
Molecule `Cn1cc2c(cc1=O)CCN(C(=O)Nc1ccc(Cl)c(Cl)c1)C2` [Compound 92, N-(3,4-Dichlorophenyl)-7-methyl-6-oxo-3,4,6,7-tetrahydro-2,7-naphthyridine-2(1H)-carboxamide] has an IC50 of over 5 µM.
In the case of `O=C(Nc1ccc(Cl)c(Cl)c1)N1CCc2ncncc2C1` [Compound 1, N-(3,4-Dichlorophenyl)-7,8-dihydropyrido[4,3-d]pyrimidine-6(5H)-carboxamide], the IC50 is reported as 0.5 to 5 µM.
In the case of `Cc1cccc2c1CCN(C(=O)Nc1ccc(Cl)c(Cl)c1)C2` [Compound 58, N-(3,4-Dichlorophenyl)-5-methyl-3,4-dihydroisoquinoline-2(1H)-carboxamide], the IC50 is reported as 0.5 to 5 µM.
With `O=C(Nc1ccc(Cl)c(Cl)c1)N1CCc2cnc(F)cc2C1` [Compound 86, N-(3,4-Dichlorophenyl)-7-fluoro-3,4-dihydro-2,6-naphthyridine-2(1H)-carboxamide] the IC50 was 0.5 to 5 µM.
In the case of `Cc1cccc2c1CCN(C(=O)Nc1ccc(C(F)(F)F)c(Cl)c1)C2` [Compound 60, N-(3-Chloro-4-(trifluoromethyl)phenyl)-5-methyl-3,4-dihydroisoquinoline-2(1H)-carboxamide], the IC50 is reported as 0.5 to 5 µM.
